Read-outs that look alike come from different tables or passages of the source.
Experiments:
[1] = target: UGMmyco (Mycobacterium tuberculosis, UniProt P9WIQ1); test: HPLC assay of UGMmyco conversion of UDP-galactofuranose to UDP-galactopyranose (inhibition, kinetics); format: biochemical; settings: initial rates at various UDP-Galf, 25 or 50 μM inhibitor, 11 nM UGMmyco, pH 7
Procedure: UGMmyco inhibition was assessed using a previously described HPLC assay to measure the extent of enzymatic conversion of UDP-galactofuranose to UDP-galactopyranose. (Carlson, E. E.; May, J. F.; Kiessling, L. L. Chem. Biol. 2006, 13, 825-837.)
The relative activity of UGMmyco in the presence of DMSO alone was compared to that in the presence of 50 μM of selected aminothiazoles. Enzymatic reaction conditions were as follows: 50 μM UDP-Galf, 4 μM UGMmyco and 20 mM DTT in 4% DMSO v/v. The mean activities of UGMmyco in the presence of the aminothiazoles are presented in order of decreasing binding affinities to highlight the relationship between enzyme inhibition and binding affinity.
The inhibition curves look similar to the binding curves depicted in FIGS. 5A and 5B. […] In the graphs of these figures, conversion is the amount of UDP-Galp formed divided by the amount of total UDP-Gal (UDP-Galp+UDP-Galf). The data were fit to the equation as previously described. (Soltero-Higgin, M.; Carlson, E. E.; Phillips, J. H.; Kiessling, L. L., Identification of inhibitors for UDP-galactopyranose mutase. J. Am. Chem. Soc. 2004, 126, 10532-10533.)
For inhibitor kinetic assays, the initial rate of UGMmyco was determined at various UDP-Galf concentrations in the presence of either DMSO alone (4% v/v), 25 μM inhibitor, or 50 μM inhibitor. […] Product formation was analyzed using a HPLC-based assay. […]

[2] = target: T1, UGM from Mycobacterium tuberculosis (UGMmyco) (Mycobacterium tuberculosis, UniProt P9WIQ1); test: Fluorescence polarization binding / inhibition assay, UGMmyco
T1 sequence (P9WIQ1 whole entry): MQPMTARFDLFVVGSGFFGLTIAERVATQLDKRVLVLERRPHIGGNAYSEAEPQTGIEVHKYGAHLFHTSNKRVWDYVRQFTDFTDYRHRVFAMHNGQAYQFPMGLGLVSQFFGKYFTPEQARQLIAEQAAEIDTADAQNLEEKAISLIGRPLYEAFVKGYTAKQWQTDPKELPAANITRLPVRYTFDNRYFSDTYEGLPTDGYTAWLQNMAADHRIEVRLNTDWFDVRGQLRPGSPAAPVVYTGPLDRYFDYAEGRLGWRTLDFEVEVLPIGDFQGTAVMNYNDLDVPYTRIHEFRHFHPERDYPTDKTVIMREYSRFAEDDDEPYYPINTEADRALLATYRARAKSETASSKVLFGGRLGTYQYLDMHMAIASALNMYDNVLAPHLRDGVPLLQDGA
Procedure: (§1) Serial dilutions of dialyzed UGM (maximum concentration was typically 30 μM) was incubated with 15 nM of fluorescent compounds 5a-5f, 6 or 11 in 50 mM sodium phosphate buffer, pH 7.0 at 25° C. Final volumes were 30 μL in 384 well black microtiter plates (Costar). Fluorescence polarization was analyzed using a Wallac EnVision plate reader. Data were fit to y=m1+((m2−m1)*x^m3)/(m4^m3+x^m3); m2=maximum FP signal, m1=minimum FP signal, m3=slope, m4=binding constant (KaleidaGraph, Synergy Software).
The fluorescence polarization inhibition assay was performed as previously described (22). Reactions contained 580 nM UGMmyco or 500 nM UGMkleb and 15 nM of the fluorescent probe 5c in 50 mM sodium phosphate buffer, pH 7.0 at 25° C. Final volumes were 30 μL in 384 well black microtiter plates (Costar). Serial dilutions of UDP, 4d or 7 were added to the wells. Fluorescence polarization was analyzed using a Wallac EnVision plate reader. Data were fit to y=m1+((m2−m1)*x^m3)/(m4^m3+x^m3); m2=maximum FP signal, m1=minimum FP signal, m3=slope, m4=apparent binding constant (KaleidaGraph, Synergy Software). […]. FIGS. 13A and 13B are graphs illustrating determination of Kd for compound II for UGMmyco (FIG. 13A) and UGMkleb (FIG. 13B).

[3] = target: T2, UGM from Klebsiella pneumoniae (UGMkleb) (Klebsiella pneumoniae, UniProt Q48485); test: Fluorescence polarization binding / inhibition assay, UGMkleb
T2 sequence (Q48485 24-384): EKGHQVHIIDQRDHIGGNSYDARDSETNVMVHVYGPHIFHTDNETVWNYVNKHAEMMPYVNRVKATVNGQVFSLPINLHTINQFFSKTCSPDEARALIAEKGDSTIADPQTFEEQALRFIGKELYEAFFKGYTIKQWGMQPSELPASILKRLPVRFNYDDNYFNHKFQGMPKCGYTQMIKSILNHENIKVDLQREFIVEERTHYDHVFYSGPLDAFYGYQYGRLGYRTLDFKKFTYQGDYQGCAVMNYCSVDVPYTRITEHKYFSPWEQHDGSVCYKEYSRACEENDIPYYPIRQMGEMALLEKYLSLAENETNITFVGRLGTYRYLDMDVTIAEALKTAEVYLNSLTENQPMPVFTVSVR
Procedure: as §1
The fluorescence polarization inhibition assay was performed as previously described (22). Reactions contained 580 nM UGMmyco or 500 nM UGMkleb and 15 nM of the fluorescent probe 5c in 50 mM sodium phosphate buffer, pH 7.0 at 25° C. Final volumes were 30 μL in 384 well black microtiter plates (Costar). Serial dilutions of UDP, 4d or 7 were added to the wells. Fluorescence polarization was analyzed using a Wallac EnVision plate reader. Data were fit to y=m1+((m2−m1)*x^m3)/(m4^m3+x^m3); m2=maximum FP signal, m1=minimum FP signal, m3=slope, m4=apparent binding constant (KaleidaGraph, Synergy Software). To determine Kd values, the apparent binding constant was then subjected to Kapp=Kd(1+(I)/KI), where I=concentration of the fluorescent probe and KI=binding affinity of the fluorescent probe to UGM. […] FIGS. 13A and 13B are graphs illustrating determination of Kd for compound II for UGMmyco (FIG. 13A) and UGMkleb (FIG. 13B).

[4] = system: UGM; test: Fluorescence polarization assay, UGM homolog not specified (UGMkleb or UGMmyco); format: binding; settings: concentrations up to 34 μM of either UGMmyco or UGMkleb
[5] = target: T2, UGM from Klebsiella pneumoniae (UGMkleb); settings: previous work; read-out: affinity of the probe for UGMkleb; cited from earlier work
[6] = target: T1, UGM from Mycobacterium tuberculosis (UGMmyco); settings: previous work; read-out: affinity of the probe for UGMmyco; cited from earlier work
[7] = Kd (UMGmyco) [μM], Table 2, 50 mM sodium phosphate pH 7.0, 25° C.
[8] = Table 2, 50 mM sodium phosphate pH 7.0, 25° C., read-out: Kd (UMGkleb)
[9] = Table 2, 50 mM sodium phosphate pH 7.0, 25° C., read-out: Kd (UMGmyco)
[10] = Kd (UMGkleb) [μM], Table 2, 50 mM sodium phosphate pH 7.0, 25° C.
[11] = Table 1, UDP-fluorescein conjugates by linker length n, read-out: UGMmyco Kd

UGMmyco, sequence (P9WIQ1 whole entry): as the sequence (P9WIQ1 whole entry) above

Compound | Kd [2, 7] [µM] | Kd [3, 8] [µM] | Kd [2, 9] [µM] | Kd [2, 11] [µM] | other results
O=C(O)C(Cc1ccc(Cl)cc1)Nc1nc(-c2ccc(Cl)cc2Cl)cs1 (stereo not drawn) | – | – | – | – | Ki [1]: 5.3 µM
O=C(O)c1cc(NC(=S)NCCOP(=O)(O)OP(=O)(O)OCC2OC(n3ccc(=O)[nH]c3=O)C(O)C2O)ccc1-c1c2ccc(=O)cc-2oc2cc(O)ccc12 (stereo not drawn) [Compound 5a, UDP-ethanolamine-fluorescein conjugate] | > 30 | > 30 | – | – | Kd ([2]; UGMmyco Kd (μM), Table 1, UDP-fluorescein conjugates by linker length n): > 30 µM
O=C(O)c1cc(NC(=S)NCCOCCOCCOP(=O)(O)OP(=O)(O)OCC2OC(n3ccc(=O)[nH]c3=O)C(O)C2O)ccc1-c1c2ccc(=O)cc-2oc2cc(O)ccc12 (stereo not drawn) [Compound 5f, UDP-3,6-dioxa-octanolamine-fluorescein conjugate] | 0.575 ± 0.016 | 0.767 ± 0.017 | – | – | fold lower affinity than compound 5d ([2]; UGMmyco, relative to 5d (eight methylene linker)): more than 10 fold; fold greater affinity than UDP ([2]; UGMmyco, relative to UDP): 20 fold
O=C(O)c1cc(NC(=S)NCCOCCOCCOCCOP(=O)(O)OP(=O)(O)OCC2OC(n3ccc(=O)[nH]c3=O)C(O)C2O)ccc1-c1c2ccc(=O)cc-2oc2cc(O)ccc12 (stereo not drawn) [Compound 5g, UDP-3,6,9-trioxa-undecanolamine-fluorescein conjugate] | 1.07 ± 0.1 | 1.2 ± 0.14 | – | – | –
O=C(O)c1cc(NC(=S)NCCCCCCCCO)ccc1-c1c2ccc(=O)cc-2oc2cc(O)ccc12 [Compound 6, Octanolamine-fluorescein conjugate] | – | – | > 30 | – | Kd [3, 10]: > 30 µM; binding of fluorophore alone [4]: no binding was observed
O=c1ccn(C2OC(COP(=O)([O-])OP(=O)(O)OCCCCCCCCNC(=S)Nc3cccc4ccccc34)C(O)C2O)c(=O)[nH]1.[Na+] (stereo not drawn) [Compound 7, UDP-octanolamine-naphthyl conjugate] | 0.61 ± 0.109 | 0.583 ± 0.036 | – | – | –
O=C(O)c1cc(NC(=S)NCCCCCCCCc2ccc(-c3csc(NC(Cc4ccc(Cl)cc4)C(=O)O)n3)cc2)ccc1-c1c2ccc(=O)cc-2oc2cc(O)ccc12 (stereo not drawn) [Compound 11, Aminothiazole-fluorescein conjugate] | – | – | 0.295 ± 0.066 | – | Kd ([2]; read-out: Kd / affinity for UGMmyco): 0.3 µM; Kd [3, 10]: 0.385 ± 0.035 µM; Kd ([3]; Kd / affinity for UGMkleb): 0.38 µM
O=c1ccn([C@@H]2O[C@H](COP(=O)(O)OP(=O)(O)O)[C@@H](O)[C@H]2O)c(=O)[nH]1 [UDP, uridine 5′-diphosphate, reference compound] | 15.1 ± 1.7 | 26 ± 1.7 | – | – | Kd ([2]; Kd / affinity for UGMmyco): 15 µM; Kd ([3]; read-out: Kd / affinity for UGMkleb): 26 µM
UDP-butanolamine-fluorescein conjugate [Compound 5b] | – | 1.94 ± 0.15 | 2.51 ± 0.28 | 2.5 | –
UDP-decanolamine-fluorescein conjugate [Compound 5e] | – | 0.07 ± 0.002 | 0.064 ± 0.004 | 0.064 | –
UDP-hexanolamine-fluorescein conjugate [Compound 5c] | – | 0.193 ± 0.011 | 0.166 ± 0.014 | 0.17 | Kd [5]: 100 nM; Kd [6]: 160 nM
UDP-octanolamine-fluorescein conjugate [Compound 5d] | – | 0.045 ± 0.002 | 0.054 ± 0.006 | 0.054 | –
Uridine 5′-diphosphooctanolamine, ammonium salt [Compound 4d] | – | 37.7 ± 1.5 | 32 ± 3.4 | – | –

Source: patent publication US8273778B2, “Inhibitors of UDP-galactopyranose mutase thwart mycobacterial growth” (Wisconsin Alumni Research Foundation, priority 2008, dated 2012)
